Among the data in patent US20240246940A1, “HETEROARYL DERIVATIVE COMPOUND AND USE THEREOF” (VORONOI INC., priority 2021, published 2024) are GI50 values, retold here.

The structures appear in SMILES notation.

Type in all cases: cell-based
Test [1] concerns N-87 cells (HER2 overexpressing cell line). Description: N-87 cell proliferation inhibitory activity (CellTiter-Glo, 72 hours). As for the experimental part: To evaluate the cell proliferation inhibitory activity of the compound according to the present invention on HER2 and EGFR kinases, the following method was performed using HER2 overexpressing cell lines (SK-BR-3, BT-474, and N-87) and EGFR expressing cell line (HaCaT).
McCOY'S 5A supplemented with 10% FBS was used for SK-BR-3 cells, RPMI-1640 medium supplemented with 20% FBS was used for BT-474 cancer cells, and RPMI-1640 medium supplemented with 10% FBS was used for N-87 cancer cells. DMEM supplemented with 10% FBS was used for HaCaT cells.
For SK-BR-3 cells, 5000 cells were aliquoted into each well of a white clear bottom 96 well plate (Corning) 48 hours before treatment with the compounds of Examples. For BT-474 cells, 5000 cells were aliquoted into each well of a white clear bottom 96 well plate (Corning) 48 hours before treatment with the compounds of Examples. For N-87 cells, 5000 cells were aliquoted into each well of a white clear bottom 96 well plate (Corning) 24 hours before treatment with the compounds of Examples. For HaCaT cells, 3000 cells were aliquoted into each well of a white clear bottom 96 well plate (Corning) 24 hours before treatment with the compounds of Examples. For SK-BR-3 cells and BT-474 cells, the compounds of Examples were diluted in dimethyl sulfoxide (three-fold dilution, a total of 11 concentrations) and injected each in an amount of 1 μl to a final concentration of 0.2 nM to 10 μM. For N-87 cells, the compounds of Examples were diluted in dimethyl sulfoxide (five-fold dilution, a total of 11 concentrations) and injected each in an amount of 0.5 μl to a final concentration of […] to 5 μM. For HaCaT cells, the compounds of Examples were diluted in dimethyl sulfoxide (three-fold dilution, a total of 11 concentrations) and injected each in an amount of 0.5 μl to a final concentration of 0.8 nM to 45 μM. For the measurement of living cells, the cells were stored at room temperature for 10 minutes using CellTiter-Glo cell viability reagent (Promega) after a certain period of time (SK-BR-3: 120 hours, BT-474: 120 hours, N-87: 72 hours, and HaCaT: 72 hours) post treatment with the compounds of Examples, and the luminescence intensity thereof was measured using a reader (SynergyNeo, Biotek). Each test was repeated three times.
The result values were calculated as a cell growth rate (%) compared to those of the control group. A graph was created using the GraphPad Prism version 5.0 program, and GI50 values were calculated.
(In general: In ATP-based viability assays light output follows the ATP content of the culture.)

Test [2] deals with HaCaT cells (EGFR expressing cell line). Description: HaCaT cell proliferation inhibitory activity (CellTiter-Glo, 72 hours). Conditions: Homo sapiens. Summed up:
(§1)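 Three independent repeats measured growth inhibition across 11 concentrations. The top final concentration was 10 μM for SK-BR-3 and BT-474, 5 μM for N-87 and 45 μM for HaCaT. Growth relative to control, read by luminescence, yielded GI50.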

For test [3], the system named is BT-474 cells (HER2 overexpressing cell line). Put plainly: BT-474 cell proliferation inhibitory activity (CellTiter-Glo, 120 hours). Conditions: Homo sapiens. In a few lines: as §1

Broadly, the GI50 is the concentration at which growth is held to half of that of the control. In the case of `C=CC(=O)N1CCC(Oc2cc3c(Nc4cc(-c5cc(C(F)(F)F)ccc5F)ccc4OC)ncnc3cc2OC)CC1` [Example 192, 1-(4-((4-((2′-fluoro-4-methoxy-5′-(trifluoromethyl)-[1,1′-biphenyl]-3-yl)amino)-7-methoxy-quinazolin-6-yl)oxy)piperidin-1-yl)prop-2-en-1-one], the GI50 in test [1], in test [2] and in test [3] was at most 150 nM each time.
`C=CC(=O)N1CC(Oc2cc3c(Nc4cc(-c5ccc(F)c(NC(=O)C6CC6)c5F)ccc4OC)ncnc3cc2OC)C1` [Example 3, N-(3′-((6-((1-acryloylazetidin-3-yl)oxy)-7-methoxy-quinazolin-4-yl)amino)-2,4-difluoro-4′-methoxy-[1,1′-biphenyl]-3-yl)cyclopropan-carboxamide]: the GI50 in test [1] is at most 150 nM; in test [2] it was 150 to 1000 nM; in test [3] it was at most 150 nM.
In the case of `C=CC(=O)N1CC[C@H](Oc2cc3c(Nc4cc(-c5ccco5)ccc4OC)ncnc3cc2OC)[C@H](F)C1` [Example 154, 1-((3R,4S)-3-fluoro-4-((4-((5-(furan-2-yl)-2-methoxy-phenyl)amino)-7-methoxy-quinazolin-6-yl)oxy)piperidin-1-yl)prop-2-en-1-one], the GI50 in test [1], in test [2] and in test [3] was at most 150 nM each time.
Take `C=CC(=O)N1CCC(Oc2cc3c(Nc4cc(-c5ccc(F)c(N6CC(F)(F)C6)c5)ccc4OC)ncnc3cc2OC)CC1` [Example 129, 1-(4-((4-((3′-(3,3-difluoroazetidin-1-yl)-4′-fluoro-4-methoxy-[1,1′-biphenyl]-3-yl)amino)-7-methoxy-quinazolin-6-yl)oxy)piperidin-1-yl)prop-2-en-1-one]: the 50% growth inhibitory concentration (GI50) in test [1] is at most 150 nM; in test [2], 150 to 1000 nM; in test [3], at most 150 nM.
With `C=CC(=O)N1CCC(Oc2cc3c(Nc4cc(-c5ccc(F)c(N(C)C)c5F)ccc4OC)ncnc3cc2OC)CC1` [Example 155, 1-(4-((4-((3′-(dimethylamino)-2′,4′-difluoro-4-methoxy-[1,1′-biphenyl]-3-yl)amino)-7-methoxy-quinazolin-6-yl)oxy)piperidin-1-yl)prop-2-en-1-one], the GI50 in test [1], in test [2] and in test [3] was at most 150 nM throughout.
As to `C=CC(=O)N1CC[C@@H](Oc2cc3c(Nc4cc(-c5ccco5)ccc4OC)ncnc3cc2OC)[C@H](F)C1` [Example 173, 1-((3R,4R)-3-fluoro-4-((4-((5-(furan-2-yl)-2-methoxyphenyl)amino)-7-methoxy-quinazolin-6-yl)oxy)piperidin-1-yl)prop-2-en-1-one], the 50% growth inhibitory concentration (GI50) in test [1], in test [2] and in test [3] was at most 150 nM each time.
As to `C=CC(=O)N1CCC(Oc2cc3c(Nc4cc(-c5ccc(F)c(NC(=O)C6CC6)c5)ccc4OC)ncnc3cc2OC)CC1` [Example 4, N-(3′-((6-((1-acryloylpiperidin-4-yl)oxy)-7-methoxy-quinazolin-4-yl)amino)-4-fluoro-4′-methoxy-[1,1'-biphenyl]-3-yl)cyclopropan-carboxamide], the values for the GI50 in test [1], in test [2] and in test [3] were at most 150 nM, over 1000 nM and at most 150 nM, respectively.
Turning to `C=CC(=O)N1CCC(Oc2cc3c(Nc4cc(-c5cccc(N6CCC6)c5)ccc4OC)ncnc3cc2OC)CC1` [Example 225, 1-(4-((4-((3′-(azetidin-1-yl)-4-methoxy-[1,1′-biphenyl]-3-yl)amino)-7-methoxy-quinazolin-6-yl)oxy)piperidin-1-yl)prop-2-en-1-one], the GI50 is at most 150 nM in test [1], over 1000 nM in test [2] and 150 to 1000 nM in test [3].
As to `C=CC(=O)N1CCC(Oc2cc3c(Nc4cc(-c5cccc(C=C)c5)ccc4OC)ncnc3cc2OC)CC1` [Example 215, 1-(4-((7-methoxy-4-((4-methoxy-3′-vinyl-[1,1′-biphenyl]-3-yl)amino)quinazolin-6-yl)oxy)piperidin-1-yl)prop-2-en-1-one], the GI50 is at most 150 nM in test [1], 150 to 1000 nM in test [2] and at most 150 nM in test [3].
As to `C=CC(=O)N1CCC(Oc2cc3c(Nc4cc(-c5ccc(F)c(N(C)C)c5)ccc4OC)ncnc3cc2OC)CC1` [Example 229, 1-(4-((4-((3′-(dimethylamino)-4′-fluoro-4-methoxy-[1,1′-biphenyl]-3-yl)amino)-7-methoxy-quinazolin-6-yl)oxy)piperidin-1-yl)prop-2-en-1-one], the results for the GI50 in test [1], in test [2] and in test [3] were at most 150 nM, 150 to 1000 nM and at most 150 nM, respectively.
Take `C=CC(=O)N1CC[C@@H](Oc2cc3c(Nc4cc(-c5ccc(F)cc5F)ccc4OC)ncnc3cc2OC)[C@@H](F)C1` [Example 189, 1-((3S,4R)-4-((4-((2′,4′-difluoro-4-methoxy-[1,1′-biphenyl]-3-yl)amino)-7-methoxy-quinazolin-6-yl)oxy)-3-fluoropiperidin-1-yl)prop-2-en-1-one]: the GI50 in test [1], in test [2] and in test [3] was at most 150 nM in each case.
Consider `C=CC(=O)N1CCC(Oc2cc3c(Nc4cc(-c5ccc(F)c(N6CCC6)c5)ccc4OC)ncnc3cc2OC)CC1` [Example 159, 1-(4-((4-((3′-(azetidin-1-yl)-4′-fluoro-4-methoxy-[1,1′-biphenyl]-3-yl)amino)-7-methoxy-quinazolin-6-yl)oxy)piperidin-1-yl)prop-2-en-1-one], for which the concentration for 50% growth inhibition (GI50) was at most 150 nM in test [1], 150 to 1000 nM in test [2] and at most 150 nM in test [3].
As for `C=CC(=O)N1CCC(Oc2cc3c(Nc4cc(-c5cc(N)c(F)cc5F)ccc4OC)ncnc3cc2OC)CC1` [Example 170, 1-(4-((4-((5′-amino-2′,4′-difluoro-4-methoxy-[1,1′-biphenyl]-3-yl)amino)-7-methoxy-quinazolin-6-yl)oxy)piperidin-1-yl)prop-2-en-1-one], the 50% growth inhibitory concentration (GI50) in test [1], in test [2] and in test [3] was at most 150 nM throughout.
With `C=CC(=O)N1CCC(Oc2cc3c(Nc4cc(-c5ccc(F)c(NC(=O)C6CC6)c5F)ccc4OC)ncnc3cc2OC)CC1` [Example 2, N-(3'-((6-((1-acryloylpiperidin-4-yl)oxy)-7-methoxy-quinazolin-4-yl)amino)-2,4-difluoro-4′-methoxy-[1,11 biphenyl]-3-yl)cyclopropan-carboxamide], the figures for the GI50 in test [1], in test [2] and in test [3] were at most 150 nM, over 1000 nM and at most 150 nM, respectively.
Turning to `C=CC(=O)N1CCC(Oc2cc3c(Nc4cc(-c5cccc(NC(C)=O)c5)ccc4OC)ncnc3cc2OC)CC1` [Example 224, N-(3′-((6-((1-acryloyl-piperidin-4-yl)oxy)-7-methoxy-quinazolin-4-yl)amino)-4′-methoxy-[1,1′-biphenyl]-3-yl)acetamide], the 50% growth inhibitory concentration (GI50) in test [1], in test [2] and in test [3] was at most 150 nM throughout.
`C=CC(=O)N1CCC(Oc2cc3c(Nc4cc(-c5scc6c5OCCO6)ccc4OC)ncnc3cc2OC)CC1` [Example 176, 1-(4-((4-((5-(2,3-dihydrothieno [3,4-b][1,4]dioxin-5-yl)-2-methoxyphenyl)amino)-7-methoxy-quinazolin-6-yl)oxy)piperidin-1-yl)prop-2-en-1-one]: the GI50 in test [1], in test [2] and in test [3] was at most 150 nM each time.
For the molecule `C=CC(=O)N1CCC(Oc2cc3c(Nc4cc(-c5c(F)cc(F)cc5F)ccc4OC)ncnc3cc2OC)CC1` [Example 190, 1-(4-((7-methoxy-4-((2′,4′,6′-trifluoro-4-methoxy-[1,1′-biphenyl]-3-yl)amino)quinazolin-6-yl)oxy)piperidin-1-yl)prop-2-en-1-one], the GI50 in test [1], in test [2] and in test [3] was at most 150 nM each time.
`C=CC(=O)N1CCC(Oc2cc3c(Nc4cc(-c5ccc(F)c(O)c5)ccc4OC)ncnc3cc2OC)CC1` [Example 168, 1-(4-((4-((4′-fluoro-3′-hydroxy-4-methoxy-[1,1′-biphenyl]-3-yl)amino)-7-methoxy-quinazolin-6-yl)oxy)piperidin-1-yl)prop-2-en-1-one]: the GI50 is at most 150 nM in test [1], 150 to 1000 nM in test [2] and at most 150 nM in test [3].
